Laboratory results as given in US5496855A, “Anti-inflammatory compounds” (SmithKline Beecham Corp., priority 1995, dated 1996).
pIC50: −log10 of the molar value. Read-outs that look alike come from different tables or passages of the source.

What was measured:
[1] = test system: Arachidonic acid induced ear inflammation; test: Assay (h): Arachidonic acid induced ear inflammation (ear edema, MPO); assay type: in vivo, mouse; details: for AA % change in edema / change in MPO, AA model: topical, standard inhibitors at doses of 0.2, 0.1 and 0.3 respectively
Experimental: (§1) Male Balb/c inbred mice are obtained from Charle River Breeding Laboratories (Kingston, N.Y.). Within a single experiment mice (22-25 g) are age-matched. These in vivo experiments typically involve the use of 5-6 animals/group.
(§2) On the day of the assay, partially thawed ear tissues are minced and then homogenized (10% w/v) with a Tissumizer homogenizer (Tekmar Co.) in 50 mM phosphate buffer (pH 6) containing 0.5% HTAB. The tissue homogenates are taken through three cycles of freeze-thaw, followed by brief sonication (10 sec). The method of Bradley et at. is used with modifications as described. […] Supernatant MPO activity is quantified kinetically (change in absorbance measured over 3 min, sampled at 15-sec intervals) using a Beckman DU-7 spectrophotometer and a Kinetics Analysis package (Beckman Instruments, Inc.). One unit of MPO activity is defined as that degrading one micromole of peroxide per minute at 25° C.
Arachidonic acid is dissolved in acetone (1 mg/ear) to the left ear of BALB/c male mice. The thickness of both cars is measured with a constant pressure thickness guage 1 hour after treatment and the data expressed as the change in thickness between treated and untreated ears. Test compounds or vehicle are given at the time of AA application. The inflammatory cell infiltration is measured by MPO activity as described above in the TPA ear edema assay. After the edema measurements are made, the inflamed ears are removed and assayed for MPO activity.

[2] = test system: TPA-induced Mouse Ear Inflammation; test: Assay (g): TPA-induced mouse ear inflammation (ear edema, MPO); assay type: in vivo; details: for TPA % change in edema / change in MPO, TPA model: topical, standard inhibitors at doses of 0.2, 0.1 and 0.3 respectively
Experimental: as §1
TPA (12-0-tetradecanoylphorbol 13-acetate) (Sigma Chemical Company) in acetone ([…]) is applied to the inner and outer surfaces of the left ear of BALB/c male mice. The thickness of both ears is then measured with a dial micrometer (Mitutoyo, Japan) at both 2 and 4 hours after treatment, and the data expressed as the change in thickness (10^-3 cm) between treated and untreated ears. […] After measuring the edema, the inflammed left ears are removed and stored at -70° C. until they were assayed for MPO (myeloperoxidase) activity where appropriate.
as §2
Statistical analysis is done using Student's "t" test.

CoA-IT = test: Assay (b): CoA-IT activity in U937 cell microsomes; assay type: biochemical, human
human neutrophils [3] = test: Assay (d): Production of platelet-activating factor (PAF), A23187-stimulated neutrophils; assay type: cell-based
Experimental: Blood is obtained from normal humans and neutrophils are isolated as described for the arachidonic acid release assay, above. The final leukocyte preparation should be of greater than 95% purity and viability.
Neutrophils are suspended in PBS at concentrations of 5 to 20×10^6 cells per ml. Cells are added to test tubes and treated with the desired compounds for 5 to 10 minutes, then challenged with calcium ionophore A23187, 2 μM and 20-30 μCi of [3H]acetic acid (NEN-Dupont, Boston, Mass.), or the vehicle of PBS with 0.25-1 mg/ml. After 5 to 20 minutes, the reactions are terminated by addition of an equal volume of chloroform:methanol (1:2, v/v) to the samples and the lipiris are extracted by addition of equal volumes of chloroform and distilled water. The samples are vortexed and centrffuged at high speed and the chloroform layer removed to a clean tube.
The chloroform from each tube is evaporated to dryness and the material suspended in a small volume of chloroform or chloroform:methanol (25-100 μl) and the total material spotted on a Silica TLC plate. The plates are developed in chloroform/methanol/acetic acid/water (50:25:8:4, v/v) visualized by radioscanning (Bioscan) and the product, [^3 H]PAF, is scraped and quantified by liquid scintillation spectroscopy. With this TLC system, the Rf value for a synthetic standard of PAF is approximately 0.33.

rh Type II-14 kDa PLA2 = target: T1, rh Type II-14 kDa PLA2 (Homo sapiens, UniProt P14555); test: Assay (a): Phospholipase A2 assay, acylhydrolysis of [3H]-AA-E. coli; assay type: biochemical; details: generally tested at 50 μm levels
T1 sequence (P14555 21-144): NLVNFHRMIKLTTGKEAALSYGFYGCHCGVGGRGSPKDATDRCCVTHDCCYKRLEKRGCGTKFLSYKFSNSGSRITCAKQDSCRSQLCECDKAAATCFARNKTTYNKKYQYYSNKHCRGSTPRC
Experimental: Phospholipase A2 activity of rh Type II-14 kDa PLA2 or PLA2 semi-purified from human synovial joint fluid was measured by the acylhydrolysis of high specific activity (NEN)[^3 H]-AA-E. coli (0.5 mCi/5nmol PL Pi) as previously described in Marshall et at., J. Rheumatology, 18:1, pp59-65 (1991). […] [Predominately used herein was rh Type II 14 kDa PLA2, or alternatively bovine pancreatic PLA2 was also be used]. The reaction mixture ([…] total volume) contained 25 mM HEPES, pH 7.4, 150 mM NaCl, 5 mM CaCl2 and [^3 H]-AA-E. coli (low specific activity; 5-8 nmol PL Pi per assay). Assays were incelbated for a time predetermined to be on the linear portion of a time versus hydrolysis plot. Experiments were conducted with final % hydrolysis values ranging from 2% (400-1000 dpm) to 10% (2000-5000 dpm) acylhydrolysis after blank correction. Reactions were terminated by the addition of 1.0 mL tetrahydrofuran (THF). […] Radiolabel in this eluate was quantitated by liquid scintillation counting. Results were expressed as % of fatty acid hydrolyzed ([sample dpms-non-specific (blank) dpms/total dpms]×100) or specific activity which was calculated from hydrolysis values found in the linear portion of time versus % hydrolysis plots (pmol free fatty acid hydrolyzed mg/min). […]

human monocytes = test: Assay (f): stimulated eicosanoid (PGE2, LTC4) release by human monocytes; assay type: cell-based; details: human monocyte cells, A23187
Experimental: Leukocyte-rich leukopaks obtained from Biological Specialties (Lansdale, Pa.) are collected from male volunteers who are not taking anti-inflammatory drugs. Leukopaks are centrifuged (90×g for 15 min) twice to remove the platelet-rich plasma. The cell pellet is washed by centrifugation and are resuspended in HBSS without Ca^2+ or Mg^2+. Histopaque 1077 is layered under the cell suspension and centrifuged at 400×g for 30 min to obtain the buffy coat. The interfacial buffy coat, containing monocytes and lymphocytes, is removed and saved. The buffy coat is washed twice with HBSS without Ca^2+ or Mg^2+ by centrifugation. The cell pellet (4-6×10^8 cells/30 mls) is resuspended in iso-osmotic media (RPMI-1640, 10% heat inactivated fetal bovine serum (FBS), 0.2 mM L-glutamine, 2.5 mM HEPES) and layered over an equal volume of 46% Percol mixture (10×PBS/Percol; 9.25/0.75) and 54% iso-osmotic media and centrifuged for 30 min at 1000×g (Marshall and Roshak, Biochem. Cell Biol. 71: 331-339, 1993). The monocyte population located at the interface of the Percoll gradient is removed and washed twice in HBSS without Ca^2+ or Mg^2+.
Monocytes (5×10^6 /ml are incubated as a suspension in serum-free RPMI-1640 medium containing the vehicle DMSO (<1%) or drug for 30 min at 27° C. after which vehicle or stimuli is added for the indicated time. The stimulating agent is solubilized in DMSO and appropriate vehicle controls are included in all experiments. The amount of stimuli is chosen from the linear portion of a concentration versus product curve usually representing 60-80% maximal stimulation over the indicated incubation time at 37° C. (A23187, 1 μM, (15 min). The reaction is terminated by reduction of pH through addition of citric acid and centrifugation (10 min, 400×g, 4° C.). Cell viability is monitored before and after experiments using trypan blue exclusion. The cell-free media is decanted and stored at -70° C. until analyzed. Prostaglandin E2 and LTC4 are directly measured in cell-free media using enzyme immunoassay (EIA) kits purchased from Caymen Chemical Co. (Ann Arbor, Mich.) Sample or standard dilutions are made with appropriate media and analyzed in triplicate. Results are obtained by extrapolation from a standard curve prepared in the media and expressed as pg or ng/ml of sample.

human neutrophils [4] = test: Assay (c): Arachidonic acid release assay, A23187-stimulated neutrophils; assay type: cell-based; details: at levels greater than 10 uM
Experimental: Human neutrophils are obtained in the laboratory using three different methods. One method uses leukophoresis packs from normal humans and neutrophils are isolated using the histopaque-1077 technique. The blood is centrifuged at 300×g for 10 minutes. The cell pellets are resuspended in PBS composed of 137 mM NaCl, 8.8 mM Na2HPO4, 1.5 mM KH2PO4, 2.7 mM KCI (Dulbecco's Gibco Laboratories, Long Island, N.Y.) and layered over histopaque-1077 (Sigma, St. Louis, Mo.). The pellets are collected after centrifugation (300×g for 30 minutes) and washed once in PBS. The cell pellets are exposed briefly to deionized water to lyse any erythrocytes. The remaining cells are collected by centrifugation, suspended in PBS, counted and identified after cytospinning and staining. The final leukocyte preparation will be of greater than 95% purity and viability.
The second method isolates human neutrophils from fresh heparinized normal blood using the Histopaque-1077 technique. […] The remaining cells are collected by centrifugation, suspended in PBS, counted and identified after cytospinning and staining. […]
The third method isolates human neutrophils from freshly drawn heparinized normal blood using the Percoil technique. […] The neutrophils are suspended in PBS, counted and identified after cytospinning and staining. […]

[5] = read-out: IC50 for LTC4 release

PLA2 inhibition (rh Type II-14 kDa PLA2)	pIC50 (human monocytes; [5])	pIC50 (human monocytes; read-out: IC50 of PGE2 release)	Compound	AA % change in edema [1]	change in MPO, AA model [1]	TPA % change in edema [2]	change in MPO, TPA model [2]	inhibitory activity in arachidonic acid release assay (human neutrophils [4])	other results
			C[C@H](C(=O)O)c1ccc2cc(OCc3ccc4ccccc4n3)ccc2c1 [WY 50,295]	-50%	-90	-18%	-36		
			CC(=O)O[C@H]1C[C@@H]2[C@@]3(C)CCCC(C)(C)[C@@H]3CC[C@@]2(C)[C@@H]2CC=C(C=O)[C@H](C=O)[C@@]12C [scalaradial]		-33		-65		
positive PLA2 inhibition	6.28	~7.00	N#CCC(CSc1ccc(Cc2ccccc2)cc1)NC(=O)CCCCCCc1ccccc1 (stereo not drawn) [Example 2, [3-(7-Phenylheptylamido)-4-(4-phenylmethyl)phenylthio]butylnitrile]					weak inhibitory activity	CoA-IT inhibitory activity (CoA-IT; at levels of greater than 30 uM): did not demonstrate positive activity; inhibitory activity in PAF production assay (human neutrophils [3]; at greater than 30 uM): did not demonstrate positivr activity
positive PLA2 inhibition	6.66	> 7.00	NC(=O)N(O)CCC(CSc1ccc(Cc2ccccc2)cc1)NC(=O)CCCCCCc1ccccc1 (racemic) [Example 1, N-[3-(7-phenylheptylamido)-4-(4-phenylmethyl)phenylthio]-butyl-N-hydroxy urea]					weak inhibitory activity	CoA-IT inhibitory activity (CoA-IT; generally tested at 50 μm levels): positive CoA-IT inhibitory activity; pIC50 (human neutrophils [3]; Neutrophil, human neutrophils, A23187): ~5.00; MPO, AA ear model ([1]; 1 mg/ear): -53%; reduction in ear swelling, AA ear model ([1]; 1 mg/ear): -36%; MPO activity, percent change, TPA ear model ([2]; topically, 1 mg/ear): -68%; ear swelling (edema), percent change, TPA ear model ([2]; topically, 1 mg/ear): -43%; inhibition of inflammatory cell infiltration, TPA ear model ([2]; typically dosed at 50 mg/ear): demonstrated activity as an inhibitor of the inflammatory cell infiltration
			C[C@@H]1C[C@H]2[C@@H]3CCC4=CC(=O)C=C[C@]4(C)[C@@]3(F)[C@@H](O)C[C@]2(C)[C@@]1(O)C(=O)CO [dexamethasone]	-10%	0	-50%	-54		
